Laboratory results as given in patent US6949566B2, “Thiazole and oxazole derivatives” (Shionogi & Co. Ltd., priority 2000, dated 2005).

Target: T1, MMP-8 (Homo sapiens, UniProt P22894)
T1 construct: catalytic domain (^99Phe˜^262Gly) was amplified with PCR; His-tag; enterokinase digestion-site; made in house; host or cells: Escherichia coli
Assay: Assay for inhibitory activities on MMPs (fluorogenic peptide substrate), MMP-8
Format: biochemical
Settings: catalytic domain 99Phe-262Gly; substrate MOCAc-Pro-Leu-Gly-Leu-A2Pr(DNP)-Ala-Arg-NH2
Source text: In regard to MMP-8, catalytic domain (^99Phe˜^262Gly) was amplified with PCR using commercial available Human Bone Marrow cDNA. This was cloned in Escherichia. coli expression vector pTrc99AHE inserted with His-tag sequence and enterokinase digestion-site, induced and expressed by IPTG (Isopropyl-β-D-thiogalactopyranoside) and expressed in a insoluble fraction (Thau F. Ho, M. Walid Qoronfleh, Robert C. Wahl, Trica A. Pulvino, Karen J. Vavra, Joe Falvo, Tracey M. Banks, Patricia G. Brake and Richard B. Ciccarelli: Gene expression, purification and characterization of recombinant human neutrophil collagenase. Gene 146, (1994) 297-301, Prepared by the a improved method of this material). Isolation of MMP-8 from an insoluble fraction was carried out by dissolving in modifier (6M urea) by a usual method and purification with metal chelate chromatography. And then removing modifier (6M urea) with dialysis and refolding of the enzyme spontaneously gave activated MMP-8.
(§1) The enzymatic activity on MMPs was analyzed by the method described in “C. Graham Knight, Frances Willenbrock and Gillian Murphy: A novel coumarin-labelled peptide for sensitive continuous assays of the matrix metalloproteinases: FEBS LETT., 296, (1992), 263-266”. The substrate MOCAc-Pro-Leu-Gly-Leu-A2Pr(DNP)-Ala-Arg-NH2 was purchased from Peptide Institute, Inc., Osaka, Japan. The measurement of the inhibitory activities (IC50) was carried out by the following four methods;
(§2) (A) Reaction with substrate, enzyme (MMPs) and inhibitor
(§3) (B) Reaction with substrate and inhibitor, without enzyme
(§4) (C) Reaction with substrate and enzyme (MMPs), without inhibitor
(§5) (D) Reaction with substrate only
(§6) IC50 values were calculated by using the following formula and each fluorescence values of above four methods (A to D). % inhibition={1−(A−B)/(C−D)}×100 IC50 means the concentration required to inhibit 50% of the enzyme activity.

T1 sequence (P22894 99-262): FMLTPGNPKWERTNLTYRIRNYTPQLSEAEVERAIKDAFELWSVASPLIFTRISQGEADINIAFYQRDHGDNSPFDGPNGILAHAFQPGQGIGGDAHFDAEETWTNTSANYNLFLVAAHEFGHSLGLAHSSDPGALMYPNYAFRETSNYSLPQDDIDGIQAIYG

| SMILES | IC50 |
| --- | --- |
| CC(C)[C@H](NS(=O)(=O)c1ccc(-c2ncc(-c3ccccc3)s2)cc1)C(=O)O [Compound B-3] | 18.9 nM |
| C[C@@H](NS(=O)(=O)c1ccc(-c2ncc(-c3ccc(F)cc3)o2)cc1)C(=O)O [Compound A-6] | 233 nM |
| CC(C)[C@@H](NS(=O)(=O)c1ccc(-c2ncc(-c3ccc(Br)cc3)o2)cc1)C(=O)O [Compound A-27] | 57.3 nM |

Continued, values first:

| IC50 | SMILES |
| --- | --- |
| 15.4 nM | COc1ccc(-c2cnc(-c3ccc(S(=O)(=O)N[C@H](C)C(=O)O)cc3)s2)cc1 [Compound B-23] |
| 144 nM | CC(C)C[C@@H](NS(=O)(=O)c1ccc(-c2ncc(-c3ccc(Cl)cc3)s2)cc1)C(=O)O [Compound B-31] |

Target: T2, MMP-13 (Homo sapiens, UniProt P45452)
T2 construct: catalytic domain (^104Tyr˜^267Gly) was amplified with RT-PCR; His-tag; enterokinase digestion-site; made in house; host or cells: Escherichia coli
Assay: Assay for inhibitory activities on MMPs (fluorogenic peptide substrate), MMP-13
Format: biochemical
Settings: catalytic domain 104Tyr-267Gly; substrate MOCAc-Pro-Leu-Gly-Leu-A2Pr(DNP)-Ala-Arg-NH2
Procedure: (§7) In regard to MMP-13, mRNA was prepared from carcinoma cell SW1353 derived from human cartilage stimulate by IL-1, TNF and catalytic domain (^104Tyr˜^267Gly) was amplified with RT-PCR. This was cloned in Escherichia. coli expression vector pTrc99AHE inserted with His-tag sequence and enterokinase digestion-site, induced and expressed by IPTG (Isopropyl-β-D-thiogalactopyranoside) and expressed in a insoluble fraction. Isolation of MMP-13 from an insoluble fraction was carried out by dissolving in modifier (6M urea) by a usual method and purification with metal chelate chromatography (Ni Chelateing Sepharose). And then removing modifier (6M urea) with dialyze and refolding of the enzyme spontaneously gave activated MMP-13.
as §1, §2, §3, §4, §5, §6

| SMILES | IC50 |
| --- | --- |
| CC(C)[C@H](NS(=O)(=O)c1ccc(-c2ncc(-c3ccccc3)s2)cc1)C(=O)O [Compound B-3] | 15 nM |
| C[C@@H](NS(=O)(=O)c1ccc(-c2ncc(-c3ccc(F)cc3)o2)cc1)C(=O)O [Compound A-6] | 234 nM |
| CC(C)[C@@H](NS(=O)(=O)c1ccc(-c2ncc(-c3ccc(Br)cc3)o2)cc1)C(=O)O [Compound A-27] | 54.5 nM |

Next, values leading:

| IC50 | SMILES |
| --- | --- |
| 2.04 nM | COc1ccc(-c2cnc(-c3ccc(S(=O)(=O)N[C@H](C)C(=O)O)cc3)s2)cc1 [Compound B-23] |
| 32.6 nM | CC(C)C[C@@H](NS(=O)(=O)c1ccc(-c2ncc(-c3ccc(Cl)cc3)s2)cc1)C(=O)O [Compound B-31] |

Target: T3, MMP-2 (Homo sapiens, UniProt P08253)
T3 construct: purchased Calbiochem-Novabiochem International, Inc
T3 sequence (P08253 110-660): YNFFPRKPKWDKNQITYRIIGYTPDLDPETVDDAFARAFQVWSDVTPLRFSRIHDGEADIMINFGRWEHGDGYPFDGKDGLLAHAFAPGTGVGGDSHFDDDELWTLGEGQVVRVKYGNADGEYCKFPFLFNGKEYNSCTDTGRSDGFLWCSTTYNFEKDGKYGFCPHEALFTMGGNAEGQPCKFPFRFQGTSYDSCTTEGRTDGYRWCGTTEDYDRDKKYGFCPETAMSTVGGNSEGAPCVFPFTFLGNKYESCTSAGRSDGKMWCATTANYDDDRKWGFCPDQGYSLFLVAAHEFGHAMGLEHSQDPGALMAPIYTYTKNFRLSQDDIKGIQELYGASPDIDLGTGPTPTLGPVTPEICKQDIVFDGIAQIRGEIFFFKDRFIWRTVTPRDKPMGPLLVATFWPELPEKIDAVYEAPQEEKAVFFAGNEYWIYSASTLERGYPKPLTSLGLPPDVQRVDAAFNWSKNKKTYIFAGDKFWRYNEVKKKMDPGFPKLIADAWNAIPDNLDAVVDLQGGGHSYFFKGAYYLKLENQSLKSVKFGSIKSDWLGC
Assay: Assay for inhibitory activities on MMPs (fluorogenic peptide substrate), MMP-2
Format: biochemical
Settings: purchased MMP-2; substrate MOCAc-Pro-Leu-Gly-Leu-A2Pr(DNP)-Ala-Arg-NH2
Procedure: MMP-2 was purchased from Calbiochem-Novabiochem International, Inc.
as §1, §2, §3, §4, §5, §6

| SMILES | IC50 |
| --- | --- |
| CC(C)[C@H](NS(=O)(=O)c1ccc(-c2ncc(-c3ccccc3)s2)cc1)C(=O)O [Compound B-3] | 7.45 nM |
| C[C@@H](NS(=O)(=O)c1ccc(-c2ncc(-c3ccc(F)cc3)o2)cc1)C(=O)O [Compound A-6] | 9.71 nM |
| CC(C)[C@@H](NS(=O)(=O)c1ccc(-c2ncc(-c3ccc(Br)cc3)o2)cc1)C(=O)O [Compound A-27] | 6.08 nM |

Results, then the compound that gave them:

| IC50 | SMILES |
| --- | --- |
| 0.479 nM | COc1ccc(-c2cnc(-c3ccc(S(=O)(=O)N[C@H](C)C(=O)O)cc3)s2)cc1 [Compound B-23] |
| 3.57 nM | CC(C)C[C@@H](NS(=O)(=O)c1ccc(-c2ncc(-c3ccc(Cl)cc3)s2)cc1)C(=O)O [Compound B-31] |

Target: T4, MMP-12 (Homo sapiens, UniProt P39900)
T4 construct: catalytic domain(^100Phe˜^263Gly) was amplified with RT-PCR; His-tag; enterokinase digestion-site; made in house; host or cells: Escherichia coli
Assay: Assay for inhibitory activities on MMPs (fluorogenic peptide substrate), MMP-12
Format: biochemical
Settings: catalytic domain 100Phe-263Gly; substrate MOCAc-Pro-Leu-Gly-Leu-A2Pr(DNP)-Ala-Arg-NH2
Procedure: as §7, with “MMP-12,” for “MMP-13, mRNA was prepared from carcinoma cell SW1353 derived from human cartilage stimulate by IL-1, TNF and”, “domain(^100Phe˜^263Gly)” for “domain (^104Tyr˜^267Gly)”, “RT-PCR from Human Placenta Total RNA.” for “RT-PCR.”, “MMP-12” for “MMP-13”, “dialysis” for “dialyze”, “MMP-12.” for “MMP-13.”
as §1, §2, §3, §4, §5, §6

T4 sequence (P39900 100-263): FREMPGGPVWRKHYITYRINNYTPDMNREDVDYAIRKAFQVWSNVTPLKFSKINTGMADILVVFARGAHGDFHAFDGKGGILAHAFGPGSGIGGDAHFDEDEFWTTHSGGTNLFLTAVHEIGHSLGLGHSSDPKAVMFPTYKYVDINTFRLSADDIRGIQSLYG

| SMILES | IC50 |
| --- | --- |
| CC(C)[C@H](NS(=O)(=O)c1ccc(-c2ncc(-c3ccccc3)s2)cc1)C(=O)O [Compound B-3] | 3.16 nM |
| C[C@@H](NS(=O)(=O)c1ccc(-c2ncc(-c3ccc(F)cc3)o2)cc1)C(=O)O [Compound A-6] | 12.5 nM |
| CC(C)[C@@H](NS(=O)(=O)c1ccc(-c2ncc(-c3ccc(Br)cc3)o2)cc1)C(=O)O [Compound A-27] | 1.55 nM |

Continued, values first:

| IC50 | SMILES |
| --- | --- |
| 1.37 nM | COc1ccc(-c2cnc(-c3ccc(S(=O)(=O)N[C@H](C)C(=O)O)cc3)s2)cc1 [Compound B-23] |
| 4.55 nM | CC(C)C[C@@H](NS(=O)(=O)c1ccc(-c2ncc(-c3ccc(Cl)cc3)s2)cc1)C(=O)O [Compound B-31] |

Target: T5, MMP-9 (Homo sapiens, UniProt P14780)
T5 construct: endogenous in cells; host or cells: HT1080 human fibrosarcoma cells, TPA-stimulated; enzyme purified from conditioned medium
Assay: Assay for inhibitory activities on MMPs (fluorogenic peptide substrate), MMP-9
Format: biochemical
Settings: MMP-9 from HT1080 cells, activated by TPCK-Trypsin; substrate MOCAc-Pro-Leu-Gly-Leu-A2Pr(DNP)-Ala-Arg-NH2
Source text: MMP-9 was isolated and purified by procedures described in as follows: Yasunori Okada, Yukio Gonoji, Katsumi Naka, Katsuro Tomita, Isao Nakanishi, Kazushi Iwata, Kyoko Yamashita, and Taro Hayakawa: Matrix metalloproteinase 9 (92-kDa gelatinase/type IV collagenase) from HT1080 human fibrosarcoma cells. Purification and activation of the precursor and enzymic properties J. Biol. Chem., 1992, 267 21712-21719, in combination with others: 1)Yasunori Okada, Tatsuhisa Morodomi, Jan J, Enghild, ko Suzuki, Atsushi Yasui, Isao Nakanishi, Guy Salvesen and Hideaki Nagase: Matrix metalloproteinase 2 from human rheumatoid synovial fibroblasts. Purification and activation of the precursor and enzymic properties. Eur. J. Biochem. 1990, 194 721-730; 2)Robin V Ward, Rosalind M Hembry, John J Reynolds and Gillian Murphy: The purification of tissue inhibitor of metalloproteinase-2 from its 72 kDa progelatinase complex. Biochem. J. 1991 278 179-187. In detail, human fibrosarcoma ATCC HT1080 cell line was cultured to confluent in Dulbecco's Modified Medium (DMEM) containing 10% fetal-calf serum at 37° C. for 48 hours. Subsequently, the medium of confluent culture was changed to serum-free DMEM medium. To obtain MMP-9, Phorbol-12-myristate-13-acetate (TPA) must be added to this serum-free DMEM medium at a concentration of 50 ng/ml. The TPA treated medium was centrifuged at 3000 rpm for 15 min and the supernatant was concentrated to 450 ml by a Toyo-Roshi UP-20 apparatus with an ultrafiltration membrane. Then, proMMP-9 in this concentrated solution was purified by using columns of Gelatin-Sepharose and Concanavalin A-Sepharose. The pool containing proMMP-9 was dialyzed, concentrated (Toyo-Roshi UP-20) and applied to columns of Sephacryl S-200 and Green A matrix for the separation from TIMPs. The obtained proMMP-9 fraction was activated by TPCK-Trypsin (Final conc. 3 μg/501 μl React Mix.).
as §1, §2, §3, §4, §5, §6

T5 sequence (P14780 107-707 limits assumed): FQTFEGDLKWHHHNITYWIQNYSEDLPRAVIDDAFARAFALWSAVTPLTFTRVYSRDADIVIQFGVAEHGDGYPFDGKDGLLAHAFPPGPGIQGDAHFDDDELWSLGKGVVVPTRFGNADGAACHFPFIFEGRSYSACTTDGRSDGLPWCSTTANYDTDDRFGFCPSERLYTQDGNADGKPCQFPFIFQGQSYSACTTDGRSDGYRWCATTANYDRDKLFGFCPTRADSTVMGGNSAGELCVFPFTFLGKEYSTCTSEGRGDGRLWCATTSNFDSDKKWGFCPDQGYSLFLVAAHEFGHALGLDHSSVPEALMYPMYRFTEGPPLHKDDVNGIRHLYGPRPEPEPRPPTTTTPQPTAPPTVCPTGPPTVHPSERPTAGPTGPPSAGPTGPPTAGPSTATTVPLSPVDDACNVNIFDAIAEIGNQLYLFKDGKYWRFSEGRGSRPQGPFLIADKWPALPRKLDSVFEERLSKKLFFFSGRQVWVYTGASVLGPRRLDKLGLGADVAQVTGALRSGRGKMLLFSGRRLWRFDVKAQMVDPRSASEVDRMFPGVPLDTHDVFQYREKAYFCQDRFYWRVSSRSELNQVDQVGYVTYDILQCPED

| SMILES | IC50 |
| --- | --- |
| CC(C)[C@H](NS(=O)(=O)c1ccc(-c2ncc(-c3ccccc3)s2)cc1)C(=O)O [Compound B-3] | 70.5 nM |
| C[C@@H](NS(=O)(=O)c1ccc(-c2ncc(-c3ccc(F)cc3)o2)cc1)C(=O)O [Compound A-6] | 368 nM |
| CC(C)[C@@H](NS(=O)(=O)c1ccc(-c2ncc(-c3ccc(Br)cc3)o2)cc1)C(=O)O [Compound A-27] | 67.9 nM |

Now from value to compound:

| IC50 | SMILES |
| --- | --- |
| 16.2 nM | COc1ccc(-c2cnc(-c3ccc(S(=O)(=O)N[C@H](C)C(=O)O)cc3)s2)cc1 [Compound B-23] |
| 35.7 nM | CC(C)C[C@@H](NS(=O)(=O)c1ccc(-c2ncc(-c3ccc(Cl)cc3)s2)cc1)C(=O)O [Compound B-31] |
